What was measured:
Format in all cases: in vivo
transplanted rice [1] = assay: Phytotoxicity, flooded paddy field, treatment at 1 leaf-stage (Test Example 1)
Experimental: (§1) Carrier: 5 parts by weight of acetone
(§2) Surfactant: one part by weight of benzyloxy polyglycol ether.
(§3) Above described carrier and surfactant are mixed with one part by weight of the active compound ((a) ingredient and (b) ingredient) and the resulting preparation is then diluted with water to obtain given amount of the test drug (the formulation).
(§4) In a greenhouse, seeds or tubers of Echinochloa, Scirpus juncoides Roxburgh, Monochoria vaginalis Presl, annual broad-leaved weeds (Lindernia procumbens Philcox, Lindernia dubia L. Penn., Rotala indica Koehne, Elatine triandra Schk, Ammannia multiflora Roxb.), Cyperus serotinus Rottboel and Sagittaria pygmaea Miq. were inoculated in a 500 cm^2 pot filled with paddy field soil. After 2 leaf-stage of rice were transplanted, water was poured to a depth of about 3 cm. At 1.0 leaf-stage of Echinochloa oryzicola Vasing, a prescribed, diluted solution of the formulation of each active compound and each herbicidal compound in the table was separately or simultaneously applied to the surface of water. After the treatment, the water depth of 3 cm was maintained, and herbicidal effect was examined after 4 weeks. In the assessment of the herbicidal effect and the phytotoxicity, 100% refers to complete death and 0% refers to no effect or no phytotoxicity.

[2] = test system: Monochoria vaginalis Presl; assay: Weed control, flooded paddy field, treatment at 3 leaf-stage (Test Example 2); details: after 4 weeks
Experimental: as §1, §2, §3
as §4, with “Echinochloa, Cyperus difformis L.,” for “Echinochloa,”, “3.0” for “1.0”, “Echinochloa,” for “Echinochloa oryzicola Vasing,”

[3] = test system: annual broad-leaved weeds; assay: as above; details: after 4 weeks
Experimental: as §1, §2, §3
as §4, with “Echinochloa, Cyperus difformis L.,” for “Echinochloa,”, “3.0” for “1.0”, “Echinochloa,” for “Echinochloa oryzicola Vasing,”

Sagittaria pygmaea Miq. [4] = assay: as above; details: after 4 weeks
Experimental: as §1, §2, §3
as §4, with “Echinochloa, Cyperus difformis L.,” for “Echinochloa,”, “3.0” for “1.0”, “Echinochloa,” for “Echinochloa oryzicola Vasing,”

[5] = test system: Cyperus serotinus Rottboel; assay: as above; details: after 4 weeks
Experimental: as §1, §2, §3
as §4, with “Echinochloa, Cyperus difformis L.,” for “Echinochloa,”, “3.0” for “1.0”, “Echinochloa,” for “Echinochloa oryzicola Vasing,”

[6] = test system: Scirpus juncoides Roxburgh; assay: as above; details: after 4 weeks
Experimental: as §1, §2, §3
as §4, with “Echinochloa, Cyperus difformis L.,” for “Echinochloa,”, “3.0” for “1.0”, “Echinochloa,” for “Echinochloa oryzicola Vasing,”

Echinochloa [7] = assay: as above; details: after 4 weeks
Experimental: as §1, §2, §3
as §4, with “Echinochloa, Cyperus difformis L.,” for “Echinochloa,”, “3.0” for “1.0”, “Echinochloa,” for “Echinochloa oryzicola Vasing,”

[8] = test system: Monochoria vaginalis Presl; assay: Weed control, flooded paddy field, treatment at 1 leaf-stage (Test Example 1); details: after 4 weeks
Experimental: as §1, §2, §3, §4

[9] = test system: annual broad-leaved weeds; assay: as above; details: after 4 weeks
Experimental: as §1, §2, §3, §4

Sagittaria pygmaea Miq. [10] = assay: as above; details: after 4 weeks
Experimental: as §1, §2, §3, §4

[11] = test system: Cyperus serotinus Rottboel; assay: as above; details: after 4 weeks
Experimental: as §1, §2, §3, §4

[12] = test system: Scirpus juncoides Roxburgh; assay: as above; details: after 4 weeks
Experimental: as §1, §2, §3, §4

Echinochloa [13] = assay: as above; details: after 4 weeks
Experimental: as §1, §2, §3, §4

transplanted rice [14] = assay: Phytotoxicity, flooded paddy field, treatment at 3 leaf-stage (Test Example 2)
Experimental: as §1, §2, §3
as §4, with “Echinochloa, Cyperus difformis L.,” for “Echinochloa,”, “3.0” for “1.0”, “Echinochloa,” for “Echinochloa oryzicola Vasing,”

[15] = test system: Monochoria vaginalis Presl; assay: Weed control by spray treatment at 1.5 to 3.0 leaf-stage (Test Example 3); details: spray at 1.5 to 3.0 leaf-stage, 4 weeks later
Experimental: as §1, §2, §3
(§5) In a greenhouse, seeds of rice (var.: Nipponbare and RD23) and weeds (Echinochloa oryzicola Vasing, Echinochloa cruss-galli, Leptochloa chinensis, Cyperus difformis L., Cyperus iria L., annual broad-leaved weeds (Monochoria vaginalis Presl, Lindernia procumbens Philcox, Lindernia dubia L. Penn., Rotala indica Koehne, Elatine triandra Schk, Ammannia multiflora Roxb. and the like)) were sown in a 500 cm^2 pot filled with paddy field soil and covered with soil. Water was added to the pot (a depth of 0 cm) to be a wet condition, and each test plant was grown in the greenhouse to 1.5 to 3.0 leaf-stage, after then a prescribed, diluted solution of the formulation of each active compound and each herbicidal compound in the table were separately or simultaneously sprayed over the pots with plants. At 3 days after the treatment, the water depth of 3 cm was maintained, and 4 weeks later, herbicidal effect was then examined. In the assessment of the herbicidal effect and the phytotoxicity, 100% refers to complete death and 0% refers to no effect or no phytotoxicity.

Cyperus iria L. = assay: as above; details: spray at 1.5 to 3.0 leaf-stage, 4 weeks later
Experimental: as §1, §2, §3, §5

Leptochloa chinensis = assay: as above; details: spray at 1.5 to 3.0 leaf-stage, 4 weeks later
Experimental: as §1, §2, §3, §5

[16] = test system: Echinochloa oryzicola Vasing; assay: as above; details: spray at 1.5 to 3.0 leaf-stage, 4 weeks later
Experimental: as §1, §2, §3, §5

[17] = test system: annual broad-leaved weeds; assay: as above; details: spray at 1.5 to 3.0 leaf-stage, 4 weeks later
Experimental: as §1, §2, §3, §5

Echinochloa cruss-galli = assay: as above; details: spray at 1.5 to 3.0 leaf-stage, 4 weeks later
Experimental: as §1, §2, §3, §5

Cyperus difformis L. = assay: as above; details: spray at 1.5 to 3.0 leaf-stage, 4 weeks later
Experimental: as §1, §2, §3, §5

[18] = test system: submerged direct sown paddy (Nipponbare); assay: Phytotoxicity, spray treatment at 1.5 to 3.0 leaf-stage (Test Example 3)
Experimental: as §1, §2, §3, §5

[19] = test system: submerged direct sown paddy (RD-23); assay: as above
Experimental: as §1, §2, §3, §5

In the case of `COc1nc(OC)nc(C(O)c2cccc(F)c2N(C)S(=O)(=O)C(F)F)n1` (stereo not drawn) [(a-3)], the “Phytotoxicity (%) ORYSP” value (transplanted rice [1]; 30 g ai/ha, treatment at 1 leaf-stage, after 4 weeks) is reported as 0%, the “Phytotoxicity (%) ORYSP” value (transplanted rice [1]; 50 g ai/ha, treatment at 1 leaf-stage, after 4 weeks) is reported as 0% and the “Herbicidal effect (%) MOOVP” value ([2]; 30 g ai/ha) is reported as 10%. For the same molecule, the “Herbicidal effect (%) MOOVP” value ([2]; 50 g ai/ha) was 13%, the “Herbicidal effect (%) BBBBB” value ([3]; 30 g ai/ha) was 3% and the “Herbicidal effect (%) BBBBB” value ([3]; 50 g ai/ha) was 8%. The “Herbicidal effect (%) SAGPY” value (Sagittaria pygmaea Miq. [4]; 30 g ai/ha) was 70%, the “Herbicidal effect (%) SAGPY” value (Sagittaria pygmaea Miq. [4]; 50 g ai/ha) was 70% and the “Herbicidal effect (%) CYPSEE” value ([5]; 30 g ai/ha) was 90%. The “Herbicidal effect (%) CYPSEE” value ([5]; 50 g ai/ha) was 90%, the “Herbicidal effect (%) SCPSS” value ([6]; 30 g ai/ha) was 60% and the “Herbicidal effect (%) SCPSS” value ([6]; 50 g ai/ha) was 60%. The “Herbicidal effect (%) ECHSS” value (Echinochloa [7]; 30 g ai/ha) was 90%, the “Herbicidal effect (%) ECHSS” value (Echinochloa [7]; 50 g ai/ha) was 90% and the “Herbicidal effect (%) MOOVP” value ([8]; 30 g ai/ha) was 20%. The “Herbicidal effect (%) MOOVP” value ([8]; 50 g ai/ha) was 40%, the “Herbicidal effect (%) BBBBB” value ([9]; 30 g ai/ha) was 20% and the “Herbicidal effect (%) BBBBB” value ([9]; 50 g ai/ha) was 35%. The “Herbicidal effect (%) SAGPY” value (Sagittaria pygmaea Miq. [10]; 30 g ai/ha) was 70%, the “Herbicidal effect (%) SAGPY” value (Sagittaria pygmaea Miq. [10]; 50 g ai/ha) was 90% and the “Herbicidal effect (%) CYPSEE” value ([11]; 30 g ai/ha) was 90%. The “Herbicidal effect (%) CYPSEE” value ([11]; 50 g ai/ha) was 90%, the “Herbicidal effect (%) SCPSS” value ([12]; 30 g ai/ha) was 60% and the “Herbicidal effect (%) SCPSS” value ([12]; 50 g ai/ha) was 60%. The “Herbicidal effect (%) ECHSS” value (Echinochloa [13]; 30 g ai/ha) was 90%, the “Herbicidal effect (%) ECHSS” value (Echinochloa [13]; 50 g ai/ha) was 90% and the “Phytotoxicity (%) ORYSP” value (transplanted rice [14]; 30 g ai/ha, treatment at 3 leaf-stage, after 4 weeks) was 0%. For the same molecule, the “Phytotoxicity (%) ORYSP” value (transplanted rice [14]; 50 g ai/ha, treatment at 3 leaf-stage, after 4 weeks) was 0%, the “Herbicidal effect (%) MOOVP” value ([15]; 30 g ai/ha) was 65% and the “Herbicidal effect (%) MOOVP” value ([15]; 50 g ai/ha) was 85%. For the same molecule, the “Herbicidal effect (%) CYPIR” value (Cyperus iria L.; 30 g ai/ha) was 100%, the “Herbicidal effect (%) CYPIR” value (Cyperus iria L.; 50 g ai/ha) was 100% and the “Herbicidal effect (%) LEFCH” value (Leptochloa chinensis; 30 g ai/ha) was 65%. The “Herbicidal effect (%) LEFCH” value (Leptochloa chinensis; 50 g ai/ha) was 80%, the “Herbicidal effect (%) ECHOR” value ([16]; 30 g ai/ha) was 100% and the “Herbicidal effect (%) ECHOR” value ([16]; 50 g ai/ha) was 100%. The “Herbicidal effect (%) BBBBB” value ([17]; 30 g ai/ha) was 65%, the “Herbicidal effect (%) BBBBB” value ([17]; 50 g ai/ha) was 85% and the “Herbicidal effect (%) ECHCG” value (Echinochloa cruss-galli; 30 g ai/ha) was 100%. For the same molecule, the “Herbicidal effect (%) ECHCG” value (Echinochloa cruss-galli; 50 g ai/ha) was 100%, the “Herbicidal effect (%) CYPDI” value (Cyperus difformis L.; 30 g ai/ha) was 100% and the “Herbicidal effect (%) CYPDI” value (Cyperus difformis L.; 50 g ai/ha) was 100%. The “Phytotoxicity (%) ORYSW*^1” value ([18]; 30 g ai/ha, spray at 1.5 to 3.0 leaf-stage, 4 weeks later) was 0%, the “Phytotoxicity (%) ORYSW*^1” value ([18]; 50 g ai/ha, spray at 1.5 to 3.0 leaf-stage, 4 weeks later) was 10% and the “Phytotoxicity (%) ORYSW*^2” value ([19]; 30 g ai/ha, spray at 1.5 to 3.0 leaf-stage, 4 weeks later, RD-23) was 0%. The “Phytotoxicity (%) ORYSW*^2” value ([19]; 50 g ai/ha, spray at 1.5 to 3.0 leaf-stage, 4 weeks later, RD-23) was 0%.

With `CCOc1ccccc1OS(=O)(=O)NC(=O)Nc1nc(OC)cc(OC)n1` [(b-5), ethoxysulfuron] the “Phytotoxicity (%) ORYSP” value (transplanted rice [1]; rice, in vivo, 4 weeks) was 10%, the “Herbicidal effect (%) MOOVP” value ([2]; 20 g ai/ha) was 80% and the “Herbicidal effect (%) BBBBB” value ([3]; 20 g ai/ha) was 60%. For the same molecule, the “Herbicidal effect (%) SAGPY” value (Sagittaria pygmaea Miq. [4]; 20 g ai/ha) was 60%, the “Herbicidal effect (%) CYPSEE” value ([5]; 20 g ai/ha) was 20% and the “Herbicidal effect (%) SCPSS” value ([6]; 20 g ai/ha) was 90%. The “Herbicidal effect (%) ECHSS” value (Echinochloa [7]; 20 g ai/ha) was 50%, the “Herbicidal effect (%) MOOVP” value ([8]; 20 g ai/ha) was 95% and the “Herbicidal effect (%) BBBBB” value ([9]; 20 g ai/ha) was 95%. The “Herbicidal effect (%) SAGPY” value (Sagittaria pygmaea Miq. [10]; 20 g ai/ha) was 90%, the “Herbicidal effect (%) CYPSEE” value ([11]; 20 g ai/ha) was 60% and the “Herbicidal effect (%) SCPSS” value ([12]; 20 g ai/ha) was 95%. The “Herbicidal effect (%) ECHSS” value (Echinochloa [13]; 20 g ai/ha) was 30%, the “Phytotoxicity (%) ORYSP” value (transplanted rice [14]; rice, in vivo, 4 weeks) was 0% and the “Herbicidal effect (%) MOOVP” value ([15]; 20 g ai/ha) was 95%. For the same molecule, the “Herbicidal effect (%) CYPIR” value (Cyperus iria L.; 20 g ai/ha) was 100%, the “Herbicidal effect (%) LEFCH” value (Leptochloa chinensis; 20 g ai/ha) was 15% and the “Herbicidal effect (%) ECHOR” value ([16]; 20 g ai/ha) was 15%. The “Herbicidal effect (%) BBBBB” value ([17]; 20 g ai/ha) was 90%, the “Herbicidal effect (%) ECHCG” value (Echinochloa cruss-galli; 20 g ai/ha) was 10% and the “Herbicidal effect (%) CYPDI” value (Cyperus difformis L.; 20 g ai/ha) was 100%. The “Phytotoxicity (%) ORYSW*^1” value ([18]; rice, in vivo, 4 weeks) was 10% and the “Phytotoxicity (%) ORYSW*^2” value ([19]; RD-23, rice, in vivo, 4 weeks) was 10%.

From patent US20080200337A1, “Mixed herbicide compositions for paddy field” (Bayer CropScience, priority 2007, published 2008)
